From article PMC4100783 (Biochemistry, 2014)
Several values for one entry are separate records, joined by “and”; a condition that tells them apart may be missing. Equal values may be shown once.

Legend:
mftR [1] = conditions: cited from earlier work
MftR-mftpO complex = assay type: biochemical, Burkholderia thailandensis
mftR [2] = assay type: binding, Burkholderia thailandensis; conditions: read-out: K
mftR [3] = assay type: binding, Burkholderia thailandensis
MftR W11F = assay type: binding, Burkholderia thailandensis
MftR D56S = assay type: binding, Burkholderia thailandensis
MftR-mftrO complex = assay type: biochemical, Burkholderia thailandensis
MftR WT = target: T1, MftR WT (Burkholderia thailandensis E264, UniProt Q2SVY7 1-164); assay: EMSA
T1 sequence: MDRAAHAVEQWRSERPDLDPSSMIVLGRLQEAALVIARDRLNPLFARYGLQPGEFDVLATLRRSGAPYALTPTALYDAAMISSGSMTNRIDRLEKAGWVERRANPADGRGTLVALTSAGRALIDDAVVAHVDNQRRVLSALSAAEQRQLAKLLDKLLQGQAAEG

For `O=c1[nH]cnc2nc[nH]c12` [hypoxanthine], the “effect on DNA binding by MftR” value (mftR [1]) is given as “inhibit DNA binding, albeit less efficiently than urate”.

With `O=c1[nH]c(=O)c2[nH]c(=O)[nH]c2[nH]1` [urate] the IC50 (MftR-mftpO complex) was 2200 µM, the Kd (mftR [2]) was 6.1 ± 2.1 µM and the “Tm of MftR” value (mftR [3]) was 61.3 ± 1.0 °C. For the same molecule, the “Tm of MftR D1” value (mftR [3]) was 49.2 ± 0.2 °C, the “Tm of MftR D2” value (mftR [3]) was 58.0 ± 0.1 °C and the “Tm of W11F” value (MftR W11F) was 27.0 ± 0.1 °C and 28.8 ± 0.7 °C. The “increase of Tm compared to protein alone” value (MftR W11F) was ~4 °C, the “Tm of D56S” value (MftR D56S) was 52.3 ± 0.3 °C and 51.3 ± 0.1 °C and the IC50 (MftR-mftrO complex) was 3700 ± 300 µM.

For `O=c1[nH]c(=O)c2nc[nH]c2[nH]1` [xanthine], the “effect on DNA binding by MftR” value (mftR [1]) is listed as “inhibit DNA binding, albeit less efficiently than urate”.

B1: mftrO (dsDNA)
DNA 1: CGTCCAAGTTATCTTGACGTAGAGACATGTCGAATC
DNA 2: GATTCGACATGTCTCTACGTCAAGATAACTTGGACG
For B1, the Kd (MftR WT) was 0.0007 ± 0.0001 µM.

B2: mftpO (dsDNA)
DNA 1: TGTCGAATCTATCTTGATGTCGAGACAATTATACGC
DNA 2: GCGTATAATTGTCTCGACATCAAGATAGATTCGACA
In the case of B2, the Kd (MftR WT) is reported as 0.0006 ± 0.0001 µM.
